What was measured:
[1] = system: A549 cells; experiment: CyQUANT Direct Cell Proliferation Assay, A549; assay type: cell-based, human; conditions: for percent live cells compared to vehicle treated: 48 hours, Ro5-3335 150 μM, Ro24-7429 50 μM-200 μM, Pirfenidone 500 μg/ml, Nintedanib 5 μM; for anti-proliferative effect: 150 μM
Description: Human type II alveolar epithelial cells (A549) were a generous gift from Dr. Lagares (Mass General Hospital). Cells were maintained in low glucose-DMEM containing 10% FBS, 2 mM L-glutamine, 100 U/ml penicillin and 100 μg/ml streptomycin at 37° C. in a humidified 5% C02 atmosphere. Confluent cultures of cells were pretreated with Ro24-7429 for 24 hours followed by stimulation with 5 ng/ml of TGF-β1.
(§1) We tested the effect of RUNX1 inhibition on the proliferation of a human alveolar basal epithelial cell line (A549), primary human-derived pulmonary alveolar epithelial cells (HPAEpi), and in human-derived primary culture lung fibroblasts (HLF). For specific analyses we used escalating doses of Ro24-7429 (50-200 μM), Ro5-3335 (150 μM), pirfenidone (500 μg/ml) and nintedanib (5 μM), the latter two are currently approved drugs for IPF.

[2] = system: human lung fibroblasts (HLF); experiment: CyQUANT Direct Cell Proliferation Assay, HLF; assay type: cell-based; conditions: 72 hours, 150 μM
Source text: as §1, with “We conducted mechanistic studies in cell culture to examine the cellular and molecular mechanisms underlying the robust effects of RUNX1 inhibition in the protection against bleomycin-induced lung injury. We” for “We”

[3] = system: A549 cells; experiment: Lactate dehydrogenase (LDH) cell death assay, A549; assay type: cell-based; conditions: for cell death: 500μ g/ml
Description: Human type II alveolar epithelial cells (A549) were a generous gift from Dr. Lagares (Mass General Hospital). Cells were maintained in low glucose-DMEM containing 10% FBS, 2 mM L-glutamine, 100 U/ml penicillin and 100 μg/ml streptomycin at 37° C. in a humidified 5% C02 atmosphere.
We tested the effect of RUNX1 inhibition on the proliferation of a human alveolar basal epithelial cell line (A549), primary human-derived pulmonary alveolar epithelial cells (HPAEpi), and in human-derived primary culture lung fibroblasts (HLF).

[4] = system: human lung fibroblasts (HLF); experiment: Lactate dehydrogenase (LDH) cell death assay, HLF; assay type: cell-based; conditions: Ro24-7429 50-200 μM, Ro5-3335 150 μM
Source text: as §1, with “We conducted mechanistic studies in cell culture to examine the cellular and molecular mechanisms underlying the robust effects of RUNX1 inhibition in the protection against bleomycin-induced lung injury. We” for “We”

SMILES	percent live cells compared to vehicle treated [1]	anti-proliferative effect ([1]; A549, 48 hours) [%]	anti-proliferative effect ([1]; A549, 72 hours) [%]	reduction in proliferation [2] [%]	cell death by LDH analysis ([3]; A549, Ro24-7429 50-200 μM, Ro5-3335 150 μM)	cell death by LDH analysis [4]	cell death ([3]; A549, 48 hours) [%]	cell death ([3]; A549, 72 hours) [%]
O=C1CN=C(c2ccc[nH]2)c2cc(Cl)ccc2N1 [Ro5-3335, [7-chloro-5-(2-pyrryl)-3H-1,4 benzodiazapin-2-(H)-one]]	significant reduction	32	50	40	Very low levels of cell death	Very low levels of cell death		
Cc1ccc(=O)n(-c2ccccc2)c1 [pirfenidone]	significant reduction						8	11

From US12673063B2, “Methods and materials for treatment of fibrosis” (Massachusetts Eye and Ear Infirmary, priority 2020, dated 2026)
